The target in one series is p38 MAPKγ (Homo sapiens, UniProt P53778). Put plainly: Enzyme binding assay (Kinomescan). As to conditions: read-out: % Inhibition of kinase binding at 500 nM, p38 MAPKγ. How it is done:
Enzyme Binding Assays (Kinomescan)
These assays were conducted by DiscoverX (formerly Ambit; San Diego, Calif.). The percentage inhibition produced by incubation with a test compound is calculated relative to the non-inhibited control.

Series [1] has as its target CYP450 (Homo sapiens, UniProt P08684). Put plainly: Time-dependent inhibition of cytochromes (CYP450 TDI). The format is in vitro ADME. As to conditions: CYP3A4 (midazolam probe), human hepatic microsomes. How it is done:
(§1) (ii) Time-Dependent Inhibition of Cytochromes
(§2) CYP450 time-dependent inhibition (TDI) assays were performed with test compound at six test concentrations, 0.062 μM to 15 μM (n=2). The test compounds was pre-incubated for 30 minutes with pooled human hepatic microsomes in 0.1 M Tris buffer, pH 7.4, at 37° C. in the presence of cofactor NADPH. A parallel series of incubations (n=2) were prepared with no pre-incubation. Probe substrates were then added (with additional cofactor) and further incubated for the times specified. Concentrations of probe substrates used in the incubations have been optimised to maintain first order reaction conditions.
(§3) Reactions were terminated with acetonitrile containing analytical internal standard (carbamazepine), samples then centrifuged to remove microsomal protein and analysed using optimised LC/MS-MS conditions. The MS data were normalised to internal standard and compared to the appropriate solvent controls to determine the amount of metabolite formed from the probe substrate relative to the “uninhibited” controls. The results are quoted as % inhibition. These values were then plotted using the sigmoidal dose response equation (shown below) and IC50's calculated.
(§4) Y=bottom+((top-bottom)/1+10̂((Log IC50−X)*Hill slope)) • X=Log concentration • Y=response
(§5) Variation in probe turnover between plate wells means that inhibition values recorded below 10-15% may not be significant.

Series [2] deals with CYP450 (Homo sapiens, UniProt P11712). The description is as above. The class given is in vitro ADME. Conditions: CYP2C9 (diclofenac probe), human hepatic microsomes. How it is done: as §1, §2, §3, §4, §5
Chain of CYP450 (Homo sapiens, UniProt P11712) (P11712 whole entry): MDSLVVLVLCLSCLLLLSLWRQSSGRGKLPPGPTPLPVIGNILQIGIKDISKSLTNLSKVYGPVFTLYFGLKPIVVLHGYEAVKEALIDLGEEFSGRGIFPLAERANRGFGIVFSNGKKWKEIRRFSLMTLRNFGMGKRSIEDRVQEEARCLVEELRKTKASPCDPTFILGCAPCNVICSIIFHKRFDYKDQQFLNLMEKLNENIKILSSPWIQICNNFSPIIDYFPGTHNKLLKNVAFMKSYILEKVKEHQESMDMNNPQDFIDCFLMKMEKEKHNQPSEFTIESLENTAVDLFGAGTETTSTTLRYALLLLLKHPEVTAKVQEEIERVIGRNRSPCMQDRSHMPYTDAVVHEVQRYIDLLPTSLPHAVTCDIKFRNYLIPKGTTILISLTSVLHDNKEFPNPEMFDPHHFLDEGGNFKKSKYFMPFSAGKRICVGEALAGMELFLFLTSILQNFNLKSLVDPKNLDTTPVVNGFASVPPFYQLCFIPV
For another series, the target named is CYP3A4 (Homo sapiens, UniProt P08684). Described as above. Conditions: human, pooled human liver microsomes, pH 7.4, probe midazolam, CYP3A4 (midazolam probe), 15 μM, human hepatic microsomes, read-out: 15 μM % Inh. The format is in vitro ADME. As for the experimental part: as §1, §2, §3, §4, §5
Chain of CYP3A4 (P08684 whole entry): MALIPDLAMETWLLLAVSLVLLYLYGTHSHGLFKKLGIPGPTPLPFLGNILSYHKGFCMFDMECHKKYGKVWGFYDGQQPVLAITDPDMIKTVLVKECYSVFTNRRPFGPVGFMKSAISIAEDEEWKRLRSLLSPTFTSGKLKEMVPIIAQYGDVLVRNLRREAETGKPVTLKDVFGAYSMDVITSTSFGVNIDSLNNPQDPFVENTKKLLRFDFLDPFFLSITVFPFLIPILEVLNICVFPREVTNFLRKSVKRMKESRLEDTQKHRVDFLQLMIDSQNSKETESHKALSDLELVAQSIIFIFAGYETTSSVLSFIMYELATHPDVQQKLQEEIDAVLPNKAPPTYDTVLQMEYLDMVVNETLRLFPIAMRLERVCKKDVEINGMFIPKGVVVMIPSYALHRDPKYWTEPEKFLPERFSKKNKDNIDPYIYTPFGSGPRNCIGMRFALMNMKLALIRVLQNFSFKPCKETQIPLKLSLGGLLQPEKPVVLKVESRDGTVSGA
The next series deals with CYP2C9 (Homo sapiens, UniProt P11712). Described as above. The format is in vitro ADME. As to conditions: human, pooled human liver microsomes, pH 7.4, probe diclofenac, CYP2C9 (diclofenac probe), 15 μM, human hepatic microsomes, read-out: 15 μM % Inh. As for the experimental part: as §1, §2, §3, §4, §5
Chain of CYP2C9 (P11712 whole entry): as the sequence (P11712 whole entry) above
Another series concerns the target B-Raf (V600e) (Homo sapiens, UniProt P15056, V600E). Nature of the series: Enzyme binding assay (KINOMEscan). As for the experimental part:
The kinase enzyme binding activities of compounds disclosed herein were determined using a proprietary assay which measures active site-directed competition binding to an immobilized ligand (Fabian, M. A. et al., Nature Biotechnol., 2005, 23:329-336). These assays were conducted by DiscoverX (formerly Ambit; San Diego, Calif.). The percentage inhibition produced by incubation with a test compound is calculated relative to the non-inhibited control.

The subject of series [3] is Salmonella typhimurium, strains TA98 and TA100. Nature of the series: Mutagenicity assessment (bacterial reverse mutation screen). Conditions: presence or absence of S-9 mix; up to 5000 μg/plate. As for the experimental part: Mutagenicity Assessment (Bacterial Reverse Mutation Screen)
Studies were conducted by Sequani (Ledbury, Herefordshire, UK) to assess the compound of Example 77 in vitro for its ability to induce mutations in two histidine dependent auxotrophic mutants of Salmonella typhimurium, strains TA98 and TA100.
The mutation screen was conducted using the plate incorporation method and was performed in both the presence and absence of S-9 mix (a liver post-mitochondrial fraction derived from the livers of Aroclor 1254 treated rats). The bacteria were exposed to the compound of Example 77 dissolved in dimethylsulphoxide, which solvent was also used as the negative control. The dose levels used were 0.32, 1.6, 8, 40, 200, 1000 or 5000 μg/plate.

In series [4] the test system is 71 receptors and 26 enzymes. Put plainly: Diversity Profile (Cerep). The class given is binding. As to conditions: 300 nM. As for the experimental part: Studies were conducted by Cerep (Celle-Lévescault, France) to investigate the binding of the compound of Example 77 to a diverse selection of receptors and to investigate either the inhibition or activation of a selection of enzymes (the “Diversity Profile” comprising a total of 71 receptors and 26 enzymes).

Read-outs that look alike come from different tables or passages of the source. Some results are limits rather than exact numbers.

Chain of CYP450 (Homo sapiens, UniProt P08684) (P08684 whole entry): as the sequence (P08684 whole entry) above
Chain of B-Raf (V600e) (P15056 whole entry V600E): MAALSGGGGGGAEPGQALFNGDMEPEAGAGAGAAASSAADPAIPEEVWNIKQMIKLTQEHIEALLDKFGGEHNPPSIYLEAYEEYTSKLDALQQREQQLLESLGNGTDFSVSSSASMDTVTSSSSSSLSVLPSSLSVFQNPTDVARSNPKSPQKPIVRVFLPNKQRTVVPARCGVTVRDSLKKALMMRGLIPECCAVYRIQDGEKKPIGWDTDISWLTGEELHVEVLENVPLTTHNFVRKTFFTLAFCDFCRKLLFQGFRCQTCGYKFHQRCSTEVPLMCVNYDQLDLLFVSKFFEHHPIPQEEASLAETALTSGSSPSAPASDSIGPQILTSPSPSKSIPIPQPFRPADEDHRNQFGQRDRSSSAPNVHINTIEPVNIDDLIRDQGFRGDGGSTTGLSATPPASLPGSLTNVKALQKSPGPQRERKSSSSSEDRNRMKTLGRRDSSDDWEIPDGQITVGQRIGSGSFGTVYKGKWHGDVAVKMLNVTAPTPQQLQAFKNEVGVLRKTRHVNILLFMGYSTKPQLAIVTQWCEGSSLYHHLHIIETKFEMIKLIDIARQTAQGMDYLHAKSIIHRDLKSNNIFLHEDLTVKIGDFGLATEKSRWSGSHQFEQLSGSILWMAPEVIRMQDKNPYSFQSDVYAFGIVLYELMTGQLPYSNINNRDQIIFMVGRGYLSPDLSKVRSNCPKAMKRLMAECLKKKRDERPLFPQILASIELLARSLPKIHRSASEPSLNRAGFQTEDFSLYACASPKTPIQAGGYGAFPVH
Chain of p38 MAPKγ (P53778 whole entry): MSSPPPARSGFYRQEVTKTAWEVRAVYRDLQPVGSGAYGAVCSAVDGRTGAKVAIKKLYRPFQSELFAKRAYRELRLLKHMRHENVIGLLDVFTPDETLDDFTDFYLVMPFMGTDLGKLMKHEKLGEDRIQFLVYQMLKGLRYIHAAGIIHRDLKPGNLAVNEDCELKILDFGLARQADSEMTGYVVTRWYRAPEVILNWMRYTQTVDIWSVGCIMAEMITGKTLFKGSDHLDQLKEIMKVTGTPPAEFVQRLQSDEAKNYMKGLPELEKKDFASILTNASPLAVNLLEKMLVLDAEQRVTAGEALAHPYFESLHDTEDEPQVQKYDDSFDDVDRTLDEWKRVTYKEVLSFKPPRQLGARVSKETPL

Turning to `COc1cc(Nc2nccc(Oc3ccc(NC(=O)Nc4cc(C(C)C)nn4-c4ccc(C)cc4)c4ccccc34)n2)cc(C(=O)NCCN2CCOCC2)c1` [Example 8, 3-((4-((4-(3-(3-Isopropyl-1-(p-tolyl)-1H-pyrazol-5-yl)ureido)naphthalen-1-yl)oxy)pyrimidin-2-yl)amino)-5-methoxy-N-(2-morpholinoethyl)benzamide], the inhibition at 0.5 µM at p38 MAPKγ turned out to be 82%.

What is called IC50 is the concentration at which inhibition is half-maximal. For the compound `C#Cc1cc(Nc2nccc(Oc3ccc(NC(=O)Nc4cc(C(C)(C)C)nn4-c4ccc(OC)cc4)c4ccccc34)n2)cc(C(=O)NCCN2CCOCC2)c1` [Example 77, 3-((4-((4-(3-(3-(tert-Butyl)-1-(4-methoxyphenyl)-1H-pyrazol-5-yl)ureido)-naphthalen-1-yl)oxy)pyrimidin-2-yl)amino)-5-ethynyl-N-(2-morpholinoethyl)benzamide], the IC50 against CYP450 [1] (0 min preincubation), against CYP450 [1] (30 min preincubation), against CYP450 [2] (0 min preincubation) and against CYP450 [2] (30 min preincubation) was > 15 µM throughout. Further, the inhibition at 15 µM was 15% on CYP3A4 (0 min preincubation), 35% at CYP3A4 (30 min preincubation), -4% on CYP2C9 (0 min preincubation) and 1% at CYP2C9 (30 min preincubation). Further, the “effect on the binding of the kinase B-Raf (V600e) to its standard ligand” value on B-Raf (V600e) is “did not have any effect on the binding”. Further, in series [3], the “revertant colonies (mutagenic effects)” value was “no dose-related or statistically significant increases in revertant colonies”. In addition, the “inhibition of control specific binding in the receptor binding assays or enzyme assays” value in series [4] was “less than 25%”.

The values are drawn from US20140057915A1, “KINASE INHIBITORS” (TOPIVERT PHARMA LIMITED, priority 2012, published 2014).
